Tests used:
Histamine H3 receptor = Histamine H3 receptor (Homo sapiens, UniProt Q9Y5N1)
[1] = target: T1, 5-hydroxytryptamine receptor 1A (Homo sapiens, UniProt P08908); format: functional, cell-based
T1 sequence (P08908 whole entry): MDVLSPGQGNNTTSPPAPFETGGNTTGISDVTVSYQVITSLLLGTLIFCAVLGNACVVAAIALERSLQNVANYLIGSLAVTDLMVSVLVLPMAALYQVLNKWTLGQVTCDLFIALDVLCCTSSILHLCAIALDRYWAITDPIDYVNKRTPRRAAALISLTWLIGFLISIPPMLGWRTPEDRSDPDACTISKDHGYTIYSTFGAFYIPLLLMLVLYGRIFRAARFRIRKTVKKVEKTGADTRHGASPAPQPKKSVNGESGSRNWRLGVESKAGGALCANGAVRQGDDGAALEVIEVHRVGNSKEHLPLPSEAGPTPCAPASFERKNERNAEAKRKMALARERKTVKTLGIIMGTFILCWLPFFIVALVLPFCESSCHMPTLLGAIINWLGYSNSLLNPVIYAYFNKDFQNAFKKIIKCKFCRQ

Progesterone receptor = target: T2, Progesterone receptor (Homo sapiens, UniProt P06401); format: functional
T2 sequence (P06401 whole entry): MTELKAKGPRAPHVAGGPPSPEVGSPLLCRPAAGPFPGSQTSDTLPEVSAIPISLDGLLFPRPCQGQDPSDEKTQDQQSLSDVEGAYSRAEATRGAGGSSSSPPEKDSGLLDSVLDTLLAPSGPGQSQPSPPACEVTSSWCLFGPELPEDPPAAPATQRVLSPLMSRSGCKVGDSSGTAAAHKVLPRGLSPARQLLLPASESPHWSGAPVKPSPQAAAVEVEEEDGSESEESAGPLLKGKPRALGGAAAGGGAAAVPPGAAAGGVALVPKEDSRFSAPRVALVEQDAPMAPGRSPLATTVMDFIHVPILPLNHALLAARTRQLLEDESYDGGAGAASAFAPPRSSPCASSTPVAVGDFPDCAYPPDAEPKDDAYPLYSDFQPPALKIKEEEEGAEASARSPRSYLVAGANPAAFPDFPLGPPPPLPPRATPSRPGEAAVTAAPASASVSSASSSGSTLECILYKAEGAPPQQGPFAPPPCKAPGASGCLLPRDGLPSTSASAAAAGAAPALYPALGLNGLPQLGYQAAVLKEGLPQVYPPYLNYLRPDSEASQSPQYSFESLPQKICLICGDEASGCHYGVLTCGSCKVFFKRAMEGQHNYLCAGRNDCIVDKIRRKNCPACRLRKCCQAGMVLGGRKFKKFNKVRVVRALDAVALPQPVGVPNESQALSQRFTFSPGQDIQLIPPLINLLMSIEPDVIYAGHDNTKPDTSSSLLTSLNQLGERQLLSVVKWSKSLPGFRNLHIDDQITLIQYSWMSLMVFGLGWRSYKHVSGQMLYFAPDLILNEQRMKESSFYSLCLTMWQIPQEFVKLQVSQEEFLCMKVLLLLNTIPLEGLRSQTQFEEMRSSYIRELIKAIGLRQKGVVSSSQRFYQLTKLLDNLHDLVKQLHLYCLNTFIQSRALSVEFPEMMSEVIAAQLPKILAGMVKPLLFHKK

Vasopressin V2 receptor = Vasopressin V2 receptor (Homo sapiens, UniProt P30518)
Sequence of Vasopressin V2 receptor (P30518 whole entry): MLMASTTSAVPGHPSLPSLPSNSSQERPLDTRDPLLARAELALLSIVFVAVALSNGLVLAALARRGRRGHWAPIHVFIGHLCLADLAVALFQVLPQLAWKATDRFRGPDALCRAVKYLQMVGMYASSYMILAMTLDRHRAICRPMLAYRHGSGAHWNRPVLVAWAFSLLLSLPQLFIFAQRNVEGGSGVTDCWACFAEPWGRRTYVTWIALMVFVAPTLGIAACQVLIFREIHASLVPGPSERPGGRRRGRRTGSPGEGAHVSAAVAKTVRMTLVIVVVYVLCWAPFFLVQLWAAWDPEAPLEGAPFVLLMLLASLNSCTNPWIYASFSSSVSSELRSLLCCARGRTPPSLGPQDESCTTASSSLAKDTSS

[2] = target: Voltage-dependent L-type calcium channel subunit alpha-1C (Rattus norvegicus, UniProt P22002); format: functional
Sequence of Voltage-dependent L-type calcium channel subunit alpha-1C (P22002 whole entry): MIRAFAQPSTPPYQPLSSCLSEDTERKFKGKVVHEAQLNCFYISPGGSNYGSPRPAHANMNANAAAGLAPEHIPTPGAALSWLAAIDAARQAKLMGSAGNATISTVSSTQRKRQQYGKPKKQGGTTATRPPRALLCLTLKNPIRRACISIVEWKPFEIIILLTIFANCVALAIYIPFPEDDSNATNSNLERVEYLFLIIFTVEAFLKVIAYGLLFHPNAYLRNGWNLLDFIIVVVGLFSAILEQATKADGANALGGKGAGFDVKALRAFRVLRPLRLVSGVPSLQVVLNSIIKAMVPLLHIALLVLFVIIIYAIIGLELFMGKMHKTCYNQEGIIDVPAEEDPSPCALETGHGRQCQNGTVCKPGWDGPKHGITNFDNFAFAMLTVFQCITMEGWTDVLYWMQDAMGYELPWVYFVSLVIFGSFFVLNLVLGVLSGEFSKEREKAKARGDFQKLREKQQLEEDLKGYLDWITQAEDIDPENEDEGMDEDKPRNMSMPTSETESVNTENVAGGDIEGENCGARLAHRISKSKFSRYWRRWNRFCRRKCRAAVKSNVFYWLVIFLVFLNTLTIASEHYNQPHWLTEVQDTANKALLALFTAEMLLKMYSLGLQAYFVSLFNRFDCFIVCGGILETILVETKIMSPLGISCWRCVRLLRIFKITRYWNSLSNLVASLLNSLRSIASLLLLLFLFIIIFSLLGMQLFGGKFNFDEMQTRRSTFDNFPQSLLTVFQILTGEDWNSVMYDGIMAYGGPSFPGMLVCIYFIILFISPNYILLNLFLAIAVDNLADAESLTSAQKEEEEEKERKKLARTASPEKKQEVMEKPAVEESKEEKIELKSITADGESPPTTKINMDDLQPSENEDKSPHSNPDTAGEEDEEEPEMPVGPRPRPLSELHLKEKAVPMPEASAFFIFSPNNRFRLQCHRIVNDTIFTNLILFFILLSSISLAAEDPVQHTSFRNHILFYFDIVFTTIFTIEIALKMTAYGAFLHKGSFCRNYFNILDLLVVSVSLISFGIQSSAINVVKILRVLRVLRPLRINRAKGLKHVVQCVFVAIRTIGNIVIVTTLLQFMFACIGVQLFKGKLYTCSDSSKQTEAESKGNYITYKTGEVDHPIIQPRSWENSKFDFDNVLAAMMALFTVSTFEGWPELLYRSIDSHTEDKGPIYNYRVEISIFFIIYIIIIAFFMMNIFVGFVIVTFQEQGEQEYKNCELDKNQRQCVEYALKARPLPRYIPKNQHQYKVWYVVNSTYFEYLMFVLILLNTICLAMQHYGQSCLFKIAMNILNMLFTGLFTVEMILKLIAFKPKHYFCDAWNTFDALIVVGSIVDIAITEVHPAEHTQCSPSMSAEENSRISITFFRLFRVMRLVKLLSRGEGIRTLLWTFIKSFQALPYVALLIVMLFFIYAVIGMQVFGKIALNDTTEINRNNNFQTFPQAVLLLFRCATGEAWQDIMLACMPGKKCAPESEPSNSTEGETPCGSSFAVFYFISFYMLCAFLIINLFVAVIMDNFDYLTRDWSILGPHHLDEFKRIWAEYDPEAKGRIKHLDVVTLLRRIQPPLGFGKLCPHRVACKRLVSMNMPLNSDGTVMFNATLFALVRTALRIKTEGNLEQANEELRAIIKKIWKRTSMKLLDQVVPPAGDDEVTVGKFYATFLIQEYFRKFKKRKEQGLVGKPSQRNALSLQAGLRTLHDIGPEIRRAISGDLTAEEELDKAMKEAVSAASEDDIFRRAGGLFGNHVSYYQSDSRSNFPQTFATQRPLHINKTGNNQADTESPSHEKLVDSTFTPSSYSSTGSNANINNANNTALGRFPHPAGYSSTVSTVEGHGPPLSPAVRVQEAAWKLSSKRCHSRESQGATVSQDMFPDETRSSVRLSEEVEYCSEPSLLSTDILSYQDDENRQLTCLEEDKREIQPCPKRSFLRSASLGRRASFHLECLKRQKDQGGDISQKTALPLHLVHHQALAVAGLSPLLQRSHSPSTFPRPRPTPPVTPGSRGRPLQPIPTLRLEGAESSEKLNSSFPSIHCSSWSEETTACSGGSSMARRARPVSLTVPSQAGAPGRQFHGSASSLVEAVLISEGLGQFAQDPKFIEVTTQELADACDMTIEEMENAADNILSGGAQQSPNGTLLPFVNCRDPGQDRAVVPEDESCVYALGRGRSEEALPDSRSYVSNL

[3] = target: T3, Alpha-2C adrenergic receptor (Homo sapiens, UniProt P18825); format: functional
T3 sequence (P18825 whole entry): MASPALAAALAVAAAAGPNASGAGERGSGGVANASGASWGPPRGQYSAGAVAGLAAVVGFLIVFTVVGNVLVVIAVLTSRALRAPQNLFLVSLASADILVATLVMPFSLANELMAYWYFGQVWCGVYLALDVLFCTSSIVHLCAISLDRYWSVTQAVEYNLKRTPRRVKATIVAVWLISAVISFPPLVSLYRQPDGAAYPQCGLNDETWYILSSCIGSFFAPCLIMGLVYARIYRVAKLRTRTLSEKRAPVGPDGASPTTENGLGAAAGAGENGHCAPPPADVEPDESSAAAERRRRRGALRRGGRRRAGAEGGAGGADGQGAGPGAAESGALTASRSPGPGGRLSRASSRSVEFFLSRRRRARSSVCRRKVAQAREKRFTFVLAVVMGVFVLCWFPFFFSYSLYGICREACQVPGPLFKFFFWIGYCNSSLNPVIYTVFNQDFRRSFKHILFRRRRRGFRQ

[4] = target: T4, Muscarinic acetylcholine receptor M2 (Homo sapiens, UniProt P08172); format: functional, cell-based
T4 sequence (P08172 whole entry): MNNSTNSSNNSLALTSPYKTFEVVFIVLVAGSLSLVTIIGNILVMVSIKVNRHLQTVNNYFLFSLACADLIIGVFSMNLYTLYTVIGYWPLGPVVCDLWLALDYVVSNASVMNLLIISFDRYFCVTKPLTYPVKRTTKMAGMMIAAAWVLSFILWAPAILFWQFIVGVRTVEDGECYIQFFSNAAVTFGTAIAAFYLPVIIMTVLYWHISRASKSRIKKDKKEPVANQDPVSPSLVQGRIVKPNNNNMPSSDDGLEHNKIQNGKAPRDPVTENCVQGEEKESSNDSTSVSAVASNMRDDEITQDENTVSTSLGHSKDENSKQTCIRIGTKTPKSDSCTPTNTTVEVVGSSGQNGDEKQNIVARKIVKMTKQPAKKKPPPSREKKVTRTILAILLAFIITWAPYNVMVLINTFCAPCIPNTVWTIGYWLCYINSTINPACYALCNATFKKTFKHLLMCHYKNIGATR

D(1A) dopamine receptor = D(1A) dopamine receptor (Homo sapiens, UniProt P21728); format: functional, cell-based
Sequence of D(1A) dopamine receptor (P21728 whole entry): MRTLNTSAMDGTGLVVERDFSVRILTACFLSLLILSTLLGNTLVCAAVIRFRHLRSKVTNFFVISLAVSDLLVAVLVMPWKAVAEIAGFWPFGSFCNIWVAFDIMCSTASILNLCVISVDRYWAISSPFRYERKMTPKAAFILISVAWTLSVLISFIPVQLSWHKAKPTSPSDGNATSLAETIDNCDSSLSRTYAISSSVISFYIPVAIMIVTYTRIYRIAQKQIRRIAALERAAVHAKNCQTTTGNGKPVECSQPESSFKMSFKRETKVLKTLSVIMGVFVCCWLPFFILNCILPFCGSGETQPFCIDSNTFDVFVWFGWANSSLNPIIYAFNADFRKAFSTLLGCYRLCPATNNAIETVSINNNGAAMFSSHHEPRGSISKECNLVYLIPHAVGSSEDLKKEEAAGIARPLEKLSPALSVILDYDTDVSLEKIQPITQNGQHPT
Note: assay procedure not described here.

Sequence of Histamine H3 receptor (Q9Y5N1 whole entry): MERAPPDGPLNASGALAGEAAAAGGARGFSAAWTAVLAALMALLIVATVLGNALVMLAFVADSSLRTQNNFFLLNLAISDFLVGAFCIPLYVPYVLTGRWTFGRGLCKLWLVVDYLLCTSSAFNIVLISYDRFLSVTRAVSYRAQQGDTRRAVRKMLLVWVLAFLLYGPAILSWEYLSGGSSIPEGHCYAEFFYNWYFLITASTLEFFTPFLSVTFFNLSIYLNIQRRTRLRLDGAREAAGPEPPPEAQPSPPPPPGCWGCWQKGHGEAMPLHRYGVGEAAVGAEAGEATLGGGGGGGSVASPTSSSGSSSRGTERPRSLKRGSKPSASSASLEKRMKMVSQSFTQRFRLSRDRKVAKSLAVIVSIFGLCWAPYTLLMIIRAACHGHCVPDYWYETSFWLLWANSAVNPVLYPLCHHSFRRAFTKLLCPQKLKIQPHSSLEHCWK

| Compound | AC50 (Histamine H3 receptor) [µM] | AC50 [1] [µM] | AC50 (Progesterone receptor) [µM] | AC50 (Vasopressin V2 receptor) [µM] | AC50 [2] [µM] | AC50 [3] [µM] | AC50 [4] [µM] | AC50 (D(1A) dopamine receptor) [µM] |
| --- | --- | --- | --- | --- | --- | --- | --- | --- |
| COc1ccc2c(c1)c(CC(=O)OCC(=O)O)c(C)n2C(=O)c1ccc(Cl)cc1 [ACEMETACIN] | > 30 | 25 | > 30 | > 30 | > 30 | > 30 | > 30 | > 30 |
| CC(C)c1c(C(=O)Nc2ccccc2)c(-c2ccccc2)c(-c2ccc(F)cc2)n1CC[C@@H](O)C[C@@H](O)CC(=O)O [ATORVASTATIN] | > 10 | > 10 |  | > 30 | > 10 | > 10 |  |  |
| CN1C(=O)COc2c(C(=O)NC3CN4CCC3CC4)cc(Cl)cc21 (configuration not stated) [AZASETRON] | > 30 | > 30 | > 30 | > 30 | > 30 | > 30 | > 30 | > 30 |
| Cc1cc2c(OCC(CNC(C)(C)C)OC(=O)c3ccccc3)cccc2[nH]1 (configuration not stated) [BOPINDOLOL] | > 30 | 0.028 | > 30 | > 30 | > 30 | 3 | > 30 | > 30 |
| CCCCN1CCCCC1C(=O)Nc1c(C)cccc1C (configuration not stated) [BUPIVACAINE] | > 30 | > 30 | > 30 | > 30 | > 30 | > 30 | > 30 | > 30 |
| CC(C)(Oc1ccc(C2CC2(Cl)Cl)cc1)C(=O)O (configuration not stated) [CIPROFIBRATE] | > 30 | > 30 | > 30 | > 30 | > 30 | > 30 | > 30 | > 30 |
| Cc1c(O)c(=O)ccn1C [DEFERIPRONE] | > 30 | > 30 | > 30 | > 30 | > 30 | > 30 | > 30 | > 30 |
| CC(=O)O[C@@]12CO[C@@H]1C[C@H](O)[C@@]1(C)C(=O)[C@H](O)C3=C(C)[C@@H](OC(=O)[C@H](O)[C@@H](NC(=O)OC(C)(C)C)c4ccccc4)C[C@@](O)([C@@H](OC(=O)c4ccccc4)[C@H]21)C3(C)C [DOCETAXEL ANHYDROUS] | > 30 | > 30 | > 30 | > 30 | > 30 | > 30 | > 30 | > 30 |
| CCNC(C)Cc1cccc(C(F)(F)F)c1 (configuration not stated) [FENFLURAMINE] | > 10 |  |  | > 30 | > 10 |  | > 30 |  |
| COc1c(N2CCNC(C)C2)c(F)cc2c(=O)c(C(=O)O)cn(C3CC3)c12 (configuration not stated) [GATIFLOXACIN] |  | > 10 | > 10 | > 10 | > 10 | > 10 | > 10 | > 30 |
| CCN1CCC[C@H]1CNC(=O)c1cc(S(N)(=O)=O)ccc1OC [LEVOSULPIRIDE] | > 10 |  |  | > 30 | > 10 |  | > 10 | > 30 |
| Cc1cccc(C)c1NC(=O)C1CCCCN1C (configuration not stated) [MEPIVACAINE] | > 30 | > 30 | > 30 | > 30 |  | > 30 | > 30 | > 30 |
| COc1ccccc1OCC(O)COC(N)=O (configuration not stated) [METHOCARBAMOL] |  | > 10 | > 30 | > 10 | > 10 | > 10 | > 10 | > 10 |
| C[C@]12CCC(=O)C=C1CC[C@@H]1[C@@H]2CC[C@@]2(C)[C@H]1CC[C@]2(C)O [METHYLTESTOSTERONE] | > 30 | > 30 | 0.2 | > 30 | > 30 | > 30 | > 30 | > 30 |
| NC(=O)C[S+]([O-])C(c1ccccc1)c1ccccc1 (configuration not stated) [MODAFINIL] | > 10 | > 10 |  | > 30 | > 10 | > 10 | > 10 | > 10 |
| COc1c(C)c2c(c(O)c1C/C=C(\C)CCC(=O)OCCN1CCOCC1)C(=O)OC2 [MYCOPHENOLATE MOFETIL] | > 30 |  | > 30 | > 30 | > 30 | > 30 | > 30 | > 30 |
| CCN(CC)CCOC(=O)c1ccc(N)cc1 [PROCAINE] | 8.7 |  |  | > 30 | > 10 | > 10 | > 10 | > 10 |
| CCCOc1ccc(C(=O)OCCN(CC)CC)cc1N [PROPARACAINE] | 1.3 |  | > 30 | > 30 |  | > 30 | > 30 | > 30 |
| Nc1nc2ccc(OC(F)(F)F)cc2s1 [RILUZOLE] | > 30 | > 30 | > 30 | > 30 |  | > 30 | > 30 | > 30 |
| C#CCN(C)[C@H](C)Cc1ccccc1 [SELEGILINE] | > 10 |  | > 10 | > 10 | > 10 | 2.9 | > 10 | > 10 |
| CN[C@@H]1[C@H](O)[C@H](NC)[C@H]2O[C@@]3(O)C(=O)C[C@@H](C)O[C@H]3O[C@@H]2[C@H]1O [SPECTINOMYCIN] | > 10 | > 30 | > 10 | > 10 | > 10 | > 10 | > 10 | > 10 |
| CC[C@]1(O)C[C@@H]2CN(CCc3c([nH]c4ccccc34)[C@@](C(=O)OC)(c3cc4c(cc3OC)N(C)[C@H]3[C@@](O)(C(N)=O)[C@H](O)[C@]5(CC)C=CCN6CC[C@]43[C@@H]65)C2)C1 [VINDESINE] | > 30 |  | > 30 | > 30 | > 30 | > 30 | > 30 | > 30 |
| Cc1ccc(-c2nc3ccc(C)cn3c2CC(=O)N(C)C)cc1 [ZOLPIDEM] | > 30 | > 10 | > 30 | > 30 | > 30 | > 30 | > 30 | > 30 |
